Some test systems named below: MDA-N; OVCAR-8; SR; NCI-H226; ACHN; SK-MEL-28; SNB-19; MOLT-4; OVCAR-4; SF-539; SN12C; Malme-3M; Hs-578T; M14; LOX IMVI; SNB-75; CAKI-1; A498.
Common to all, as to experiment: NCI tumour cell line growth inhibition, 48 h

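Following 48 hours of exposure in 96-well plates, responses at five concentrations were used to interpolate endpoints linearly. GI50 = concentration required for 50% inhibition of growth.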 Activity calls are given as the source filed them. No stated cut-off is given here; in the data, active = GI50 up to about 1.1 µM and inactive = higher.

For `COc1ccc2c(c1)N=C1CSC(c3cc([N+](=O)[O-])ccc3Cl)N1C2` (stereo not drawn), the GI50 in the assay with MDA-N is 20.1 µM (inactive); with OVCAR-8, 29 µM (inactive); with SR, 26.5 µM (inactive); with NCI-H226 it was 62.8 µM (inactive); in the assay with ACHN, 20 µM (inactive); in the assay on SK-MEL-28 it was 17.2 µM (inactive). Also, the GI50 in the assay on SNB-19 was 32.3 µM (inactive); in the assay on MOLT-4, 22.5 µM (inactive); in the assay on OVCAR-4 it was 23.8 µM (inactive); in the assay on SF-539, 28.5 µM (inactive); in the assay on SN12C it was 16.3 µM (inactive); in the assay with Malme-3M, 23.2 µM (inactive). Also, the GI50 with Hs-578T is 39.8 µM (inactive); in the assay with M14, 27.5 µM (inactive); with LOX IMVI, 33 µM (inactive); in the assay with SNB-75, 19.2 µM (inactive); in the assay with CAKI-1, 22 µM (inactive).
With `NC(=O)NCCCC(NC(=O)OCCCCCn1ccc(=O)[nH]c1=O)C(=O)O` (stereo not drawn), the GI50 in the assay on MDA-N is > 100 µM (inactive); in the assay with OVCAR-8, > 100 µM (inactive); in the assay with SR, > 100 µM (inactive); in the assay on NCI-H226, 63.2 µM (inactive); in the assay on ACHN it was > 100 µM (inactive); in the assay with SK-MEL-28 it was > 100 µM (inactive). Further, the GI50 with SNB-19, in the assay on MOLT-4, in the assay on OVCAR-4, in the assay with SF-539, with SN12C and with Hs-578T was > 100 µM (inactive) throughout. Also, the GI50 in the assay on M14, in the assay with LOX IMVI, with SNB-75 and with CAKI-1 was > 100 µM (inactive) each time.
As to `O=C1c2ccccc2C(=O)N1c1nc(-c2ccc(Cl)cc2)cc(N2N=C(c3ccc(Br)cc3)CC2c2ccccc2)n1` (stereo not drawn), the GI50 is 1.03 µM (active) in the assay on MDA-N; 3.35 µM (inactive) in the assay on OVCAR-8; 0.65 µM (active) in the assay with SR; 5.38 µM (inactive) with NCI-H226; 3.9 µM (inactive) in the assay on ACHN; 7.73 µM (inactive) in the assay with SK-MEL-28. The GI50 in the assay with SNB-19 was 4.86 µM (inactive); with MOLT-4, 2.51 µM (inactive); in the assay with A498, 19.2 µM (inactive); with OVCAR-4 it was 4.23 µM (inactive); in the assay with SF-539, 2.16 µM (inactive); in the assay on SN12C it was 2.9 µM (inactive). Moreover, the GI50 in the assay on Malme-3M was > 44.7 µM (inactive); in the assay on Hs-578T, 3.74 µM (inactive); with M14, 3.73 µM (inactive); with LOX IMVI, 1.29 µM (inactive); in the assay with CAKI-1, 1.51 µM (inactive).
As for `COP(=O)(OC)C(C)(C)NC(=O)NC(F)(F)F`, the GI50 with MDA-N was > 100 µM (inactive); in the assay with OVCAR-8 it was > 100 µM (inactive); in the assay on SR it was > 100 µM (inactive); with NCI-H226, 22.2 µM (inactive); in the assay with ACHN it was > 100 µM (inactive); with SK-MEL-28, > 100 µM (inactive). Moreover, the GI50 is 70.1 µM (inactive) with SNB-19; > 100 µM (inactive) with MOLT-4; > 100 µM (inactive) in the assay on OVCAR-4; > 100 µM (inactive) in the assay on SF-539; > 100 µM (inactive) with SN12C; > 100 µM (inactive) with Malme-3M. For the same compound, the GI50 was 31.1 µM (inactive) in the assay with Hs-578T; 0.0401 µM (active) with M14; > 100 µM (inactive) with LOX IMVI; > 100 µM (inactive) in the assay on SNB-75; 0.01 µM (active) in the assay on CAKI-1.
Consider `COc1ccc(C(=O)CC(c2ccc(OC)c(OC)c2)c2c(O)oc3ccccc3c2=O)cc1OC` (stereo not drawn), for which the GI50 in the assay with MDA-N, in the assay with OVCAR-8, in the assay with SR, in the assay on NCI-H226, in the assay with ACHN and in the assay with SK-MEL-28 was > 100 µM (inactive) throughout. In addition, the GI50 in the assay on SNB-19, in the assay on MOLT-4, in the assay with OVCAR-4, in the assay with SF-539, in the assay on SN12C and with Malme-3M was > 100 µM (inactive) each time. In addition, the GI50 with Hs-578T, with M14, with LOX IMVI, in the assay with SNB-75 and in the assay on CAKI-1 was > 100 µM (inactive) in each case.
With `C#CC(O)/C=C/C(O)CCCC(O)CC#CC(O)C#CC(O)CCCC(O)/C=C/CCCC(=O)CCCCCCCCCCCCCCCC(O)C(O)C#CC(=O)O` (stereo not drawn), the GI50 with MDA-N is > 50 µM (inactive); in the assay with OVCAR-8, > 50 µM (inactive); with SR, 19.3 µM (inactive); in the assay with NCI-H226 it was > 50 µM (inactive); in the assay on ACHN, > 50 µM (inactive); with SK-MEL-28, > 50 µM (inactive). Moreover, the GI50 in the assay with SNB-19 is > 50 µM (inactive); in the assay with MOLT-4, 43.6 µM (inactive); with OVCAR-4 it was 12.5 µM (inactive); in the assay with SN12C, > 50 µM (inactive); in the assay with Malme-3M it was > 50 µM (inactive); with Hs-578T, > 50 µM (inactive). Moreover, the GI50 was > 50 µM (inactive) in the assay on M14, 10.3 µM (inactive) with LOX IMVI, 20.1 µM (inactive) in the assay on SNB-75 and > 50 µM (inactive) in the assay on CAKI-1.
In the case of `CCN(CC)CCn1c(=O)c2ccccc2n2c3c(=O)n(C)c(=O)n(C)c3nc12`, the GI50 in the assay on MDA-N was 4.85 µM (inactive); in the assay with OVCAR-8, 1.84 µM (inactive); in the assay on SR, 0.177 µM (active); in the assay on NCI-H226 it was 1.16 µM (inactive); in the assay on ACHN, 0.25 µM (active); with SK-MEL-28, 5.15 µM (inactive). Besides, the GI50 with SNB-19 is 2.38 µM (inactive); in the assay with MOLT-4 it was 0.239 µM (active); with OVCAR-4, 4.27 µM (inactive); in the assay with SF-539 it was 0.968 µM (active); in the assay on SN12C it was 1.53 µM (inactive); in the assay with Malme-3M it was 2.07 µM (inactive). Besides, the GI50 is 2.01 µM (inactive) in the assay on Hs-578T; 3.16 µM (inactive) with M14; 13.2 µM (inactive) with LOX IMVI; 1.64 µM (inactive) in the assay with SNB-75; 0.252 µM (active) with CAKI-1.
As to `CN(C)CCCNc1ccc2nnn3c4ccc(OC(=O)c5ccccc5)cc4c(=O)c1c23`, the GI50 with MDA-N is 13.8 µM (inactive); in the assay on OVCAR-8 it was 4.55 µM (inactive); in the assay with SR, 0.697 µM (active); in the assay with ACHN, 3.05 µM (inactive); with SK-MEL-28 it was 15.8 µM (inactive); in the assay on SNB-19, 10.9 µM (inactive). In addition, the GI50 in the assay on MOLT-4 is 0.192 µM (active); with A498 it was 8.41 µM (inactive); in the assay on OVCAR-4, 1.66 µM (inactive); in the assay with SF-539, 6.76 µM (inactive); in the assay with SN12C, 5.06 µM (inactive); in the assay on Malme-3M it was 11.5 µM (inactive). Further, the GI50 with Hs-578T was 18.3 µM (inactive); in the assay on M14, 13.4 µM (inactive); in the assay with LOX IMVI it was 2.17 µM (inactive); in the assay with CAKI-1, 0.579 µM (active).
For `CC1=C(C)C2(C#N)C(=O)N3C(=NC(c4ccccc4)NC3c3ccccc3)C2(C#N)C(c2ccccc2)N1` (stereo not drawn), the GI50 in the assay with MDA-N, in the assay with OVCAR-8, in the assay with SR, in the assay with NCI-H226, with ACHN and in the assay on SK-MEL-28 was > 100 µM (inactive) in each case. The GI50 in the assay on SNB-19, with MOLT-4, in the assay on A498, in the assay with OVCAR-4, in the assay on SN12C and in the assay with Malme-3M was > 100 µM (inactive) throughout. The GI50 in the assay with Hs-578T, in the assay on M14, in the assay on LOX IMVI and in the assay with CAKI-1 was > 100 µM (inactive) each time.
Consider `COc1c(C)c(C/C=C(\C)CCCCO)c(OC)c(OC)c1OC`, for which the GI50 in the assay with MDA-N was > 100 µM (inactive); with OVCAR-8, > 100 µM (inactive); with SR, 95.7 µM (inactive); in the assay on ACHN, > 100 µM (inactive); with SNB-19, > 100 µM (inactive); with MOLT-4 it was 73.6 µM (inactive). Also, the GI50 in the assay on OVCAR-4 was > 100 µM (inactive); in the assay on SF-539, > 100 µM (inactive); with SN12C, 28.7 µM (inactive); in the assay with Hs-578T, > 100 µM (inactive); in the assay on M14 it was > 100 µM (inactive); in the assay on LOX IMVI, 25.5 µM (inactive). The GI50 with SNB-75 is > 100 µM (inactive); with CAKI-1, 0.112 µM (active).
Turning to `COc1ccc(C2c3cc4c(cc3OC(N3CCCCC3)C2C)OCO4)cc1` (stereo not drawn), the GI50 in the assay on MDA-N is > 100 µM (inactive); with OVCAR-8, > 100 µM (inactive); in the assay on SR, > 100 µM (inactive); in the assay on ACHN it was 41.2 µM (inactive); with SK-MEL-28 it was > 100 µM (inactive); in the assay with SNB-19, > 100 µM (inactive). In addition, the GI50 in the assay with MOLT-4 is > 100 µM (inactive); in the assay on SF-539, > 100 µM (inactive); in the assay on SN12C, > 100 µM (inactive); in the assay on Hs-578T, 33.6 µM (inactive); in the assay on M14, > 100 µM (inactive); in the assay on LOX IMVI, > 100 µM (inactive). Further, the GI50 is 35.6 µM (inactive) in the assay with SNB-75 and 36.6 µM (inactive) in the assay on CAKI-1.
For the compound `CN1C(Cl)=NS(=O)(=O)c2ccccc21`, the GI50 is > 100 µM (inactive) in the assay on MDA-N; > 100 µM (inactive) in the assay with OVCAR-8; 18.7 µM (inactive) with SR; > 100 µM (inactive) in the assay on NCI-H226; > 100 µM (inactive) with ACHN; > 100 µM (inactive) with SK-MEL-28. The GI50 is > 100 µM (inactive) in the assay on SNB-19; 51.4 µM (inactive) in the assay on MOLT-4; 58.2 µM (inactive) in the assay with A498; > 100 µM (inactive) in the assay on OVCAR-4; > 100 µM (inactive) in the assay with SF-539; > 100 µM (inactive) with SN12C. Moreover, the GI50 with Hs-578T was > 100 µM (inactive); with M14 it was > 100 µM (inactive); in the assay with LOX IMVI, > 100 µM (inactive); in the assay on CAKI-1, 16.9 µM (inactive).

Source of the values: ChEMBL document CHEMBL1201862, “PubChem BioAssay data set” (2004).
